Experiments:
Type in all cases: in vivo
Echinochloa crus-galli [1] = assay: Test Example 1: herbicidal effect test by soil treatment in paddy field; conditions: 120 g/10a, paddy soil treatment just after sowing, 14 days after treatment
Description: (§1) A Wagner pot having an area of 1/10000 are was filled with paddy field soil and after adding water, a chemical fertilizer (N:P:K=17:17:17) was mixed, followed by puddling. Thereafter, 30 grains of each of Echinochloa crus-galli, broad-leaved weed (Lindernia pyxidaria and Monochoria vaginalis) and Scirpus juncoides seeds were sown to a depth of 0 to 1 cm. Immediately after the sowing, the pot was flooded, and the depth of water was kept at about 3 cm. The pot was subsequently managed in a glass greenhouse. Just after that, an emulsifiable concentrate prepared according to Formulation Example 5 by using the compound shown in Table 5 below was diluted with water, and a predetermined amount of the water-diluted formulation was added dropwise. The application rate of the active ingredient, by conversion, corresponded to 120 g per 10 are.
(§2) This test was performed with two replications per one formulation concentration plot, and 14 days after the formulation treatments, the weed suppression rate (%) was determined according to the following equation (Math. 1). Weed suppression rate (%)=(1−an average dry weight (g) of plants in treated plots/an average dry weight (g) of plants in untreated plots)×100 [Math. 1]

Lindernia pyxidaria [2] = assay: as above; conditions: 120 g/10a, paddy soil treatment just after sowing, 14 days after treatment
Description: as §1, §2

Monochoria vaginalis [3] = assay: as above; conditions: 120 g/10a, paddy soil treatment just after sowing, 14 days after treatment
Description: as §1, §2

Scirpus juncoides [4] = assay: as above; conditions: 120 g/10a, paddy soil treatment just after sowing, 14 days after treatment
Description: as §1, §2

Echinochloa crus-galli [5] = assay: Test Example 2: herbicidal effect test by treatment during growing period in paddy field; conditions: treatment 7 days after sowing, 120 g/10a, evaluated 14 days after treatment
Description: as §2
as §1, with “greenhouse. Seven days” for “greenhouse. Just”, “after sowing,” for “after that,”, “Table 6” for “Table 5”, “are. The test was performed with two replications per one formulation concentration plot, and 14 days after the formulation treatments, the weed suppression rate (%) was determined according to the equation (Math. 1).” for “are.”

Lindernia pyxidaria [6] = assay: as above; conditions: treatment 7 days after sowing, 120 g/10a, evaluated 14 days after treatment
Description: as §2
as §1, with “greenhouse. Seven days” for “greenhouse. Just”, “after sowing,” for “after that,”, “Table 6” for “Table 5”, “are. The test was performed with two replications per one formulation concentration plot, and 14 days after the formulation treatments, the weed suppression rate (%) was determined according to the equation (Math. 1).” for “are.”

Monochoria vaginalis [7] = assay: as above; conditions: treatment 7 days after sowing, 120 g/10a, evaluated 14 days after treatment
Description: as §2
as §1, with “greenhouse. Seven days” for “greenhouse. Just”, “after sowing,” for “after that,”, “Table 6” for “Table 5”, “are. The test was performed with two replications per one formulation concentration plot, and 14 days after the formulation treatments, the weed suppression rate (%) was determined according to the equation (Math. 1).” for “are.”

Scirpus juncoides [8] = assay: as above; conditions: treatment 7 days after sowing, 120 g/10a, evaluated 14 days after treatment
Description: as §2
as §1, with “greenhouse. Seven days” for “greenhouse. Just”, “after sowing,” for “after that,”, “Table 6” for “Table 5”, “are. The test was performed with two replications per one formulation concentration plot, and 14 days after the formulation treatments, the weed suppression rate (%) was determined according to the equation (Math. 1).” for “are.”

Row | SMILES | weed suppression rate, Echinochloa crus-galli (Echinochloa crus-galli [1]) [%] | weed suppression rate, Lindemia pyxidaria (Lindernia pyxidaria [2]) [%] | weed suppression rate, Monochoria vaginalis (Monochoria vaginalis [3]) [%] | weed suppression rate, Scirpus juncoides (Scirpus juncoides [4]) [%] | weed suppression rate, Echinochloa crus-galli (Echinochloa crus-galli [5]) [%] | weed suppression rate, Lindemia pyxidaria (Lindernia pyxidaria [6]) [%] | weed suppression rate, Monochoria vaginalis (Monochoria vaginalis [7]) [%] | weed suppression rate, Scirpus juncoides (Scirpus juncoides [8]) [%]
1 | CC(C)N(C(=O)n1ncn(S(=O)(=O)C2CCCCC2)c1=O)c1ccc(C#N)cc1Cl [Compound 1-328] | 90 | 80 | 80 | 90 | 90 | 80 | 80 | 90
2 | CC(C)N(C(=O)n1ncn(S(=O)(=O)N(C)C)c1=O)c1ccc(Cl)nc1 [Compound 1-1135] | 90 | 90 | 60 | 90 | 90 | 60 | 70 | 90
3 | Cc1ccc(N(C(=O)n2ncn(S(=O)(=O)C3CCCCC3)c2=O)C(C)C)c(Cl)c1 [Compound 1-322] | 90 | 90 | 90 | 90 | 90 | 80 | 80 | 90
4 | CC(C)N(C(=O)n1ncn(S(=O)(=O)C2CCOC2)c1=O)c1ccc(F)cc1F (racemic) [Compound 1-1161] | 90 | 80 | 80 | 90 | 90 | 80 | 80 | 90
5 | CC(C)N(C(=O)n1ncn(S(=O)(=O)C2CCCCC2)c1=O)c1ccc(C(F)(F)F)cc1F [Compound 1-323] | 100 | 100 | 80 | 100 | 100 | 70 | 70 | 70
6 | Cc1cc(C)c(S(=O)(=O)n2cnn(C(=O)N(c3cccnc3F)C(C)C)c2=O)c(C)c1 [Compound 1-921] | 90 | 80 | 60 | 70 | 80 | 80 | 60 | 70
7 | Cc1ccc(N(C(=O)n2ncn(S(=O)(=O)C3CCCCC3)c2=O)C(C)C)c(F)c1 [Compound 1-320] | 90 | 90 | 90 | 90 | 90 | 80 | 80 | 90
8 | CC(C)N(C(=O)n1ncn(S(=O)(=O)N(C)C)c1=O)c1ccccc1F [Compound 1-1093] | 90 | 80 | 80 | 90 | 90 | 80 | 80 | 90
9 | Cc1cc(F)ccc1N(C(=O)n1ncn(S(=O)(=O)C2CC2)c1=O)C(C)C [Compound 1-220] | 100 | 100 | 80 | 90 | 100 | 90 | 100 | 90

Source: patent US11076595B2, “1-(n,n-disubstituted carbamoyl) 4-(substituted sulfonyl)triazolin-5-one derivative, 4-(n,n-disubstituted carbamoyl) 1-(substituted sulfonyl)triazolin-5-one derivative, and herbicide containing said derivative as active ingredient” (HOKKO CHEMICAL INDUSTRY CO., LTD., priority 2017, dated 2021)
